Data set [1] has as its system STZ-induced type 1 diabetic mice. Nature of the data set: In vivo bioactivity comparison of native insulin and Glu-Insulin. The following applies: same insulin concentration 5 mg/kg. From the text: Glucose was conjugated to insulin via a bifunctional maleimide linker (FIG. 2). Glu-Insulin was clearly identified by the sodium dodecyl sulfate polyacrylamide gel electrophoresis (SDS-PAGE) and matrix-assisted laser desorption/ionization mass spectrometry (MALDI MS) (FIG. 3A-B). As calculated by MALDI-MS, two glucose molecules are conjugated to each insulin molecule (feed molar ratio of glucose to insulin: 100:1). […] In short, the modification of insulin with glucose has a statistically insignificant impact on bioactivity relative to unmodified insulin.

Data set [2] concerns mRBCs. Nature of the data set: Binding/loading of Glu-Insulin to mouse RBCs (confocal, flow cytometry, ELISA). The following applies: incubated overnight, confocal fluorescence microscopy. As for the experimental part: Preparation of insulin loaded RBCs. Whole blood was collected from the B16 mice or from a human volunteer (The study protocol was approved by the Institutional Review Board at North Carolina State University). RBCs were separated from the whole blood by centrifugation (1000 g, 10 min) and washed thrice with cold PBS (300 mOsm, pH=8.0) to remove the glucose intracellularly. To load the insulin to RBC membrane, Glu-Insulin (0.5 mg/ml) was incubated with […] RBCs (1×10^8) under gentle stirring at 4° C. overnight. RBCs were washed thrice with cold PBS (300 mOsm, pH 8) to remove the unconjugated Glu-Insulin. Bound insulin was determined by ELISA assay.

Data set [3] has as its system STZ-induced diabetic mice. Kind of data set: Blood glucose levels in STZ-induced diabetic mice after treatment. Particulars: i.v., 5 mg/kg insulin. It counts as in vivo. The protocol:
In Vivo Studies Using STZ-Induced Diabetic Mice. STZ-induced male C57B6 diabetic mice were purchased from Jackson Labs (USA) and used under protocols approved by the Institutional Animal Care and Use Committee at North Carolina State University. For in vivo circulating behavior of insulin-RBC, mRBCs were coupled with FITC after loading with insulin, 3 mice were injected i.v. with autologous insulin−mRBCs. Then ˜3 μL of blood was extracted from the tail vein at different time points and then dispersed in 0.5 mL of PBS with anticoagulants. Flow cytometry measurement was applied to determine the percentages of insulin−mRBCs (positive in FITC) in the blood samples. […] The BG level was measured from tail vein blood samples (approximately 3 μL) of mice using the Clarity GL2Plus glucose meter (Clarity Diagnostics) at different time points. […] Plasma insulin concentrations were determined using the human insulin ELISA kit (Calbiotech, USA). The efficacy of insulin−mRBCs for treatment of hyperglycemia in STZ-induced type 1 diabetic mice (Like, A A, et al. Science 193, 415-417 (1976)) was also assessed. […] The BG levels of treated mice were then monitored over time.

Data set [4] has as its system STZ-induced diabetic mice. Nature of the data set: Intraperitoneal glucose tolerance test (IPGTT) 1.5 h after administration. Particulars: IPGTT 1.5 hours after i.v. administration. The data set is classed as in vivo. The protocol: In Vivo Studies Using STZ-Induced Diabetic Mice. STZ-induced male C57B6 diabetic mice were purchased from Jackson Labs (USA) and used under protocols approved by the Institutional Animal Care and Use Committee at North Carolina State University. For in vivo circulating behavior of insulin-RBC, mRBCs were coupled with FITC after loading with insulin, 3 mice were injected i.v. with autologous insulin−mRBCs. Then ˜3 μL of blood was extracted from the tail vein at different time points and then dispersed in 0.5 mL of PBS with anticoagulants. Flow cytometry measurement was applied to determine the percentages of insulin−mRBCs (positive in FITC) in the blood samples. […] The BG level was measured from tail vein blood samples (approximately 3 μL) of mice using the Clarity GL2Plus glucose meter (Clarity Diagnostics) at different time points. […] Plasma insulin concentrations were determined using the human insulin ELISA kit (Calbiotech, USA). […] To quantitate the glucose response to the various insulin formulations (Yu J, et al. Proc. Natl. Acad. Sci. U.S.A. 112, 8260-8265 (2015); Chou DH-C, et al. Proc. Natl. Acad. Sci. U.S.A. 112, 2401-2406 (2015)), the area under the curve was calculated for each group between 90 and 200 min. […] Furthermore, plasma insulin levels of diabetic mice were monitored over time by ELISA after IPGTT (FIG. 8D).

A further data set has as its system healthy mice. Kind of data set: Hypoglycemia study in healthy mice under normoglycemic conditions. Particulars: mouse, in vivo. The protocol: FIG. 8F is a bar graph showing the quantification of the hypoglycemia index, calculated from the difference between the initial and nadir BG readings divided by the time at which nadir was reached. The error bars are based on the SD of five mice per group. (P values: *P<0.05) Next, the potential for insulin−mRBCs to induce hypoglycemia was studied in healthy mice under normoglycemic conditions (FIG. 8E). […] The corresponding hypoglycemia index was calculated to assess the risk of hypoglycemia (Yu J, et al. Proc. Natl. Acad. Sci. U.S.A. 112, 8260-8265 (2015); Chou DH-C, et al. Proc. Natl. Acad. Sci. U.S.A. 112, 2401-2406 (2015)).

Another data set concerns the target T1, GLUT1 (Rattus norvegicus, UniProt P11167).
T1 construct: His6 (pET-28a vector-encoded) (N); T7 tag (pET-28a vector-encoded, upstream of BamHI site) (N); made in house; host or cells: E. coli Rosetta (DE3) pLysS
T1 sequence (P11167 1-492): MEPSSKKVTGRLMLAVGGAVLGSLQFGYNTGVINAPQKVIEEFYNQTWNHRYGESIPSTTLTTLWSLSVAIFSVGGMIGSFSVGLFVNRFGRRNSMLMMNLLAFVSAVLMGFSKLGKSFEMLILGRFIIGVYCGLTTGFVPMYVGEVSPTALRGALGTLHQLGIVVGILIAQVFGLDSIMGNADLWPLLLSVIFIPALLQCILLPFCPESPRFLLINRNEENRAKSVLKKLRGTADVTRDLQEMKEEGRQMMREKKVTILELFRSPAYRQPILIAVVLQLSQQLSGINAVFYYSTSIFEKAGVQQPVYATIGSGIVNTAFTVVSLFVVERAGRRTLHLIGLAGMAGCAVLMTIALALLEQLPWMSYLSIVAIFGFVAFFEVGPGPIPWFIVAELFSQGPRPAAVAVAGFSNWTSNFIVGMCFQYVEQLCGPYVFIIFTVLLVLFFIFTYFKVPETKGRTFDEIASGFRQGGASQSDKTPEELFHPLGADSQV
Kind of data set: Binding of free GLUT1 protein and Glu-Insulin in vitro (centrifugal filter). The following applies: overnight incubation, MWCO=10 kDa filter. The protocol: Glucose modified insulin was mixed with GLUT1 protein at a molar ratio of 1.2:1 for 12 hours at 4° C. Free Glu-insulin were removed by the centrifugal filter device (MWCO=10 kDa). The obtained Glu-Insulin was stored at 4° C. until use. We first examined the specific binding affinity of free GLUT1 proteins and Glu-Insulin in vitro. We incubated the GLUT1 with Glu-Insulin overnight, free Glu-Insulin was removed by centrifugal filter device (MWCO=10 kDa).

Data set [5] concerns mRBCs.
Method: The mRBCs were incubated with Glu-Insulin overnight and imaged using the confocal fluorescence microscope to determine whether Glu-Insulin can bind to mRBCs via the specific glucose-GLUT binding.

Consider “Glu-Insulin: human recombinant insulin conjugated to two glucose (glucosamine) molecules via a bifunctional maleimide (Sulfo-SMCC/thiol) linker”, for which, in data set [1], the “bioactivity profile relative to native insulin” value is “do not display any significant difference in their bioactivity profiles”. Also, the “binding of Glu-Insulin to mRBCs” value in the data set with mRBCs [2] was “bound to the mRBCs”. Besides, in data set [3], the “BG level recovered within 24 h” value was roughly 500 mg/dL and the “BG level within 1 h” value is reported as less than 70 mg/dL. Moreover, the “BG response after IPGTT” value in data set [4] is “only exhibited a fleeting response”. In addition, in the data set on healthy mice, the “BG levels in healthy mice” value is “significantly decreased BG levels compared to insulin−mRBCs treated mice”. Besides, the “binding of Glu-Insulin to free GLUT1 protein” value in the data set with GLUT1 is recorded as “insulin signals could be detected in supernatant if co-incubated with GLUT1 proteins”. For the same substance, the “damage to mRBCs by insulin binding (annexin V)” value with mRBCs [5] is on record as “does not cause significant damage to mRBCs”.

(Values after patent US11896673B2, “Glucose responsive insulin delivery compositions and methods” (NORTH CAROLINA STATE UNIVERSITY, priority 2016, dated 2024).)
